Legend:
BM-MSC = assay: Tuj1 immunochemical assay, BM-MSC; type: cell-based, human; conditions: 10, 20 or 30 μM, 5 days
Description: To determine whether transdifferentiation into ciNSC5, neural progenitor cells, occurred similarly even in MSCs of different origins when human UCB-MSCs were treated with YJ101, YJ102, or YJ103 for 5 days, the expression of neuronal markers in differentiated ciNSC5 was confirmed by immunochemical assay using MSCs from human adipose-derived mesenchymal stem cells (AD-MSCs), human bone marrow-derived mesenchymal stem cells ([…]) and human umbilical cord blood-derived mesenchymal stem cells (UCB-MSCs; Promo Cells). Specifically, AD-MSC (StemPro™ Human Adipose-Derived Stem Cell, Gibco, Passage #6) was incubated in a MesenPRO RS™ medium, BM-MSC (ATCC, Passage #6) was incubated in a Mesenchymal Stem Cell Basal Medium for Adipose, Umbilical and Bone Marrow-derived MSC (Cat. PCS-500-030, ATCC) medium, and UCB-MSC (Promo Cell, Passage #6) was incubated in a CellCor™ CD MSC (Cat. YSP001, Xell Therapeutics) medium, and then dispensed at 2.1×10^4 cells/well in a 12-well plate with an 18 mm cover glass (circular) (DMSO control group was dispensed at 3.5×10^3 cells/well). […] The culture medium was removed, washed with PBS, and then fixed with 4% paraformaldehyde at room temperature for 10 minutes. After washed three times with PBS, the cells were permeabilized with PBS-T containing 0.5% Triton X-100 for 10 minutes, washed with PBS-T three times for 10 minutes each, and then blocked with a blocking solution (PBS-T containing 5% BSA and 5% goat serum) for 1 hour. Thereafter, the cells were treated with anti-Tuj1 antibody (Cat. 801201, BioLegend) diluted 1/5000 in a blocking solution and incubated at 4° C. overnight. The next day, the cells were washed 10 times for 10 minutes each with PBS-T, and then treated with anti-mouse IgG-cy3 diluted 1/2000 in a blocking solution, and incubated for 1 hour in dark conditions. Next, the cells were washed 10 times for 10 minutes each with PBS-T, mounted with a mounting solution containing DAPI, and then observed with a confocal microscope.

UCB-MSCs = assay: CellTiter-Glo proliferation assay; type: cell-based, human; conditions: 10, 20, or 40 μM; 3 or 5 days
Description: Thereafter, 100 μl of a CellTiter-Glo reagent prepared by mixing a CellTiter-Glo Buffer with a CellTiter-Glo substrate was added to each well of a 96-well plate, covered with a plate cover, and incubated at room temperature for 30 minutes.

human UCB-MSCs = assay: RNA-seq gene expression; type: cell-based; conditions: UCB-MSCs treated with YJ102 30 μM for 3 days
Description: The expression gene profile of ciNSC5, which was transdifferentiated from human UCB-MSCs by treating YJ102 for 5 days, was analyzed using genome-wide RNA-seq. Specifically, 1×10^5 human UCB-MSCs were dispensed in a 60 mm culture dish (a control group dispensed at 1.67×10^4), the cells were treated with YJ102 dissolved at 30 mM in DMSO at a concentration of 30 μM (the control group treated with DMSO), and incubated at 37° C. for 2, 3, or 5 days. Thereafter, the culture medium was removed, washed with PBS, and the cells were collected with a scraper and transferred to a microcentrifuge tube. PBS was removed by centrifugation, and the cells were added with 500 μl of a Tri-RNA Reagent and mixed well by pipetting. The mixture was added with 100 μl of chloroform, the tube was mixed by vortexing for 15 seconds, and then centrifuged at 4° C. at 14,000 rpm for 20 minutes. Thereafter, the upper aqueous phase was transferred to a new microcentrifuge tube using a pipette, and added and mixed with 550 μl of isopropanol. The mixture was centrifuged at 14,000 rpm at 4° C. for 20 minutes, the supernatant was discarded, and the pellet was washed with 1 ml of 70% ethanol. […] The pellet was resuspended in 100 μl RNase-free DIW, centrifuged at 14,000 rpm for 10 minutes at 4° C. to remove the supernatant, air-dried, and then the RNA concentration was quantified using nanodrop. […]

CtBP1 = CtBP1 (Homo sapiens, UniProt Q13363); assay: Immunoprecipitation, CtBP1 oligomerization in UCB-MSCs; type: cell-based; set-up: expressed in transfected cells; host or cells: human UCB-MSC; conditions: YJ102 20 μM; FLAG-CtBP1 + HA-CtBP1, 48 hours
Description: To determine the effect of YJ102 on the regulation of oligomerization of C-terminal Binding Proteins (CtBPs) in human UCB-MSCs, immunoprecipitation analysis was performed. Specifically, UCB-MSCs were dispensed at 4×10^5 cells/ml in a 60 mm culture dish, and the next day, FLAG-CtBP1, HA-CtBP1, FLAG-CtBP2, and HA-CtBP1 were transfected into cells using 4 μl jetPRIME. Thereafter, the cells were treated with YJ102 (stock 30 mM in DMSO) and MTOB (stock 300 mM in DMSO) at 20 μM and 300 μM, respectively (Table 1). After 48 hours of transfection, proteins were extracted in the same manner as in Example 1-1. Protein G agarose slurry was washed with PBS and blocked with 1 ml of 1% BSA, washed with PBS, and added with 1 μg of anti-HA antibody diluted with 1.5 ml of PBS and incubated at 4° C. for 2 hours. Thereafter, the cells were centrifuged at 3,000×g for 2 minutes to remove the supernatant, washed with an IP150 buffer two times, added with 1 μg of the protein extracted above, and incubated at 4° C. overnight. After incubation, the cells were centrifuged at 3,000×g for 2 minutes to remove the supernatant, washed with PBS three times, added with 50 μl of 1 mg/ml HA peptide diluted with PBS, and incubated at room temperature for 10 minutes. […]

oligomerization of CtBP1 (CtBP1): induced oligomerization
SMILES: CCc1ccc(N(C(=O)COC)c2nc3cc(Cl)ccc3o2)cc1 [YJ102]
expression of Tuj1 (BM-MSC): increased
cell proliferation (CellTiter-Glo) (UCB-MSCs): reduced cell proliferation in a concentration-dependent manner
expression of cell division-related genes (RNA-seq) (human UCB-MSCs): decreased
expression of nervous system-related genes (RNA-seq) (human UCB-MSCs): increased
